Measured values taken from ChEMBL document CHEMBL1148237, “Bioisosteric replacement of anilide with benzoxazole: potent and orally bioavailable antagonists of VLA-4” (Bioorg Med Chem Lett, 2004).

Legend:
[1] = Clearance of compound in rat was evaluated; assay type: ADME, organism-based; conditions: in vivo
[2] = biological target: T1, Integrin alpha-4/beta-1 (Homo sapiens, UniProt P05556+P13612); experiment: Inhibition of Mn2+ activated state of very late antigen 4 (VLA-4); assay type: protein-complex assay
T1 sequence (P05556 whole entry, one chain of several): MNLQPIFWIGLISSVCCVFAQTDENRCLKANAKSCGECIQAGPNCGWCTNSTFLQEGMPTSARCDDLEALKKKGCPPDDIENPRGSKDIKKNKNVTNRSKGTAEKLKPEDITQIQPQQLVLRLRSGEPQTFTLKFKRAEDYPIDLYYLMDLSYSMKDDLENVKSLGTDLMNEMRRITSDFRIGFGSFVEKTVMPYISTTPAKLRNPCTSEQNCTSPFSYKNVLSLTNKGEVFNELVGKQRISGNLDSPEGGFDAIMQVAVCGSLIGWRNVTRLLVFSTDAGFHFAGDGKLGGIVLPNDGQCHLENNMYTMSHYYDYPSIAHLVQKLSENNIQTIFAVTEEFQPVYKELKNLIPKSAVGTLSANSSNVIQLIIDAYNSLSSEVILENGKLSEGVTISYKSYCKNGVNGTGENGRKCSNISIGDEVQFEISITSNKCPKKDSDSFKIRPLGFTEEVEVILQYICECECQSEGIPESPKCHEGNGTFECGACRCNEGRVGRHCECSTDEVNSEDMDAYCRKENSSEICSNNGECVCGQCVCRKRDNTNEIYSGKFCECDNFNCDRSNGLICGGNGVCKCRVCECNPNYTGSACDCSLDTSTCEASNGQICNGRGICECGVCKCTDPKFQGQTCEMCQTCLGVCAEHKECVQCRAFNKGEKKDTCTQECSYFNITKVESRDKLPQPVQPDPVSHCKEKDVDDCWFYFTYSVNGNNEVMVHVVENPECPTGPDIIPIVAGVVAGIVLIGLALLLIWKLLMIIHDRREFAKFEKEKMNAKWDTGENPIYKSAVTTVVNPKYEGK

[3] = biological target: T2, Integrin alpha-4/beta-7 (Homo sapiens, UniProt P13612+P26010); experiment: Inhibition of Mn2+ activated state of alpha4-beta7 integrin; assay type: protein-complex assay
T2 sequence (P13612 whole entry): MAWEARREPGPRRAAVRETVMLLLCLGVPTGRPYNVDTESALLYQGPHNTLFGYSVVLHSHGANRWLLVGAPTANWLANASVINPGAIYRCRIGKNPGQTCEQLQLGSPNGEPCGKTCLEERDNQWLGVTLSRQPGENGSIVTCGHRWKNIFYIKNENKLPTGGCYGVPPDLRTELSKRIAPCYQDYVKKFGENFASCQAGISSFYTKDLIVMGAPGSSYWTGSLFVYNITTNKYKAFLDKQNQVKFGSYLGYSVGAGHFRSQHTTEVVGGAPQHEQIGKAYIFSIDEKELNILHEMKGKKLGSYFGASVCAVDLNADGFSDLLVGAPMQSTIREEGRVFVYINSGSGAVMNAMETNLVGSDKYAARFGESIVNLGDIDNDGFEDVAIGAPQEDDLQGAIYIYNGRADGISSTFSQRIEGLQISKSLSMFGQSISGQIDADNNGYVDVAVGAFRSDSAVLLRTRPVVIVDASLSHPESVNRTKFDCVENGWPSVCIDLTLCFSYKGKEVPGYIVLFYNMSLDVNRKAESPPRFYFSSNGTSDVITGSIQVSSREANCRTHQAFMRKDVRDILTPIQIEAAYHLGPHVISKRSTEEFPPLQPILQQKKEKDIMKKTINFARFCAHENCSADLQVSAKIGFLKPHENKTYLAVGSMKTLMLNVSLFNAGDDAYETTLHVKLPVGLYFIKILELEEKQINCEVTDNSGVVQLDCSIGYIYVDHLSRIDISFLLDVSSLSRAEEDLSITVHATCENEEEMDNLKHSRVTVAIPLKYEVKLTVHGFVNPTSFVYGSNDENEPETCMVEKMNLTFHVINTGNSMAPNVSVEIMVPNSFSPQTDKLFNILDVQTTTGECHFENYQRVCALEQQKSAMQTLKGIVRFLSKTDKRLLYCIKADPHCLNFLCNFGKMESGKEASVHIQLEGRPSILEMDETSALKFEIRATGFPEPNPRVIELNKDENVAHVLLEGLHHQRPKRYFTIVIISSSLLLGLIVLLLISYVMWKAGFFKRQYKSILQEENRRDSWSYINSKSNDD
T2 sequence (P26010 whole entry): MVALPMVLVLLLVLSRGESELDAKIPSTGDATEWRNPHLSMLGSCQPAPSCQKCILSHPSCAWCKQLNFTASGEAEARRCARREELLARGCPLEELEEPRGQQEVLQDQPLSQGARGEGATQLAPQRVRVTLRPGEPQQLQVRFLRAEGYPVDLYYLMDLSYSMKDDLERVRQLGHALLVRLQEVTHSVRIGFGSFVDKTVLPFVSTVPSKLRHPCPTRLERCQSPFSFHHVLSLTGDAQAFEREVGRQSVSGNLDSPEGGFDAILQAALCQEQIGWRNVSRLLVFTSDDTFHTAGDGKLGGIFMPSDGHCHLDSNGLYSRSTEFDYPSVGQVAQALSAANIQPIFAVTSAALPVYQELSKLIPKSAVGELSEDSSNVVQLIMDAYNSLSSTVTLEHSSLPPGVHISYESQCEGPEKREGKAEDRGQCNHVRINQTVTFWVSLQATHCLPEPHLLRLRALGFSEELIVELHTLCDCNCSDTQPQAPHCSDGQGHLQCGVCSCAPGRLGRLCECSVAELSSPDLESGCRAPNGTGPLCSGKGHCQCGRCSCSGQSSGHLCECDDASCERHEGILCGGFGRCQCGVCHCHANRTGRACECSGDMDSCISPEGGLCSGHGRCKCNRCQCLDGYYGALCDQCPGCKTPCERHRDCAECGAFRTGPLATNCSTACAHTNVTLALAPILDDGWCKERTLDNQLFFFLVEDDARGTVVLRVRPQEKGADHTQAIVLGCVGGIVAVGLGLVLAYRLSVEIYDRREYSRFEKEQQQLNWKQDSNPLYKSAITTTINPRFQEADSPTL

[4] = biological target: T1, Integrin alpha-4/beta-1; experiment: Inhibition of [Ca2+]/Mg2+ unactivated state of very late antigen 4 (VLA-4); assay type: protein-complex assay
[5] = Bioavailability in rat; assay type: ADME, organism-based; conditions: in vivo

O=C(N[C@@H](Cc1ccc2oc(-c3c(Cl)cccc3Cl)nc2c1)C(=O)O)c1c(Cl)cccc1Cl
clearance [1]: 9 mL/min/kg
IC50 [2]: 0.79 nM
IC50 [3]: 5.5 nM
IC50 [4]: 52 nM
bioavailability [5]: 20%

O=C(N[C@@H](Cc1ccc2[nH]c(-c3c(Cl)cccc3Cl)nc2c1)C(=O)O)c1c(Cl)cccc1Cl
clearance [1]: 24 mL/min/kg
IC50 [2]: 0.69 nM
IC50 [3]: 3.2 nM
IC50 [4]: 22 nM
bioavailability [5]: 1.2%

O=C(Nc1ccc(C[C@H](NC(=O)[C@@H]2CCN2S(=O)(=O)c2cc(Cl)cc(Cl)c2)C(=O)O)cc1)c1c(Cl)cccc1Cl
clearance [1]: 33 mL/min/kg
IC50 [2]: 0.27 nM
IC50 [3]: 22 nM
IC50 [4]: 0.31 nM
bioavailability [5]: 0.7%

COc1cccc(OC)c1-c1ccc(C[C@H](NC(=O)[C@]2(C)CCN2S(=O)(=O)c2cc(Cl)cc(Cl)c2)C(=O)O)cc1
clearance [1]: 97 mL/min/kg
IC50 [4]: 0.27 nM

O=C(N[C@@H](Cc1ccc2oc(-c3c(Cl)cccc3Cl)nc2c1)C(=O)O)c1c(Cl)cncc1Cl
clearance [1]: 25 mL/min/kg
IC50 [2]: 0.34 nM
IC50 [3]: 4.3 nM
IC50 [4]: 21 nM
bioavailability [5]: 25%

O=C(O)[C@H](Cc1ccc2nc(-c3c(Cl)cccc3Cl)oc2c1)NC(=O)[C@@H]1CCN1S(=O)(=O)c1cc(Cl)cc(Cl)c1
clearance [1]: 24 mL/min/kg
IC50 [2]: 1.7 nM
IC50 [3]: 1690 nM
IC50 [4]: 33 nM
bioavailability [5]: 8%

O=C(O)[C@H](Cc1ccc2[nH]c(-c3c(Cl)cccc3Cl)nc2c1)NC(=O)[C@@H]1CCN1S(=O)(=O)c1cc(Cl)cc(Cl)c1
clearance [1]: 21 mL/min/kg
IC50 [2]: 0.54 nM
IC50 [3]: 105 nM
IC50 [4]: 1.8 nM
bioavailability [5]: 0.3%

O=C(O)[C@H](Cc1ccc2oc(-c3c(Cl)cccc3Cl)nc2c1)NC(=O)[C@@H]1CCN1S(=O)(=O)c1cc(Cl)cc(Cl)c1
clearance [1]: 24 mL/min/kg
IC50 [2]: 0.74 nM
IC50 [3]: 179 nM
IC50 [4]: 3.6 nM
bioavailability [5]: 15%
